Reference: the supplement of paper PMC10307832

How the values were obtained:
Experiment in all cases: relative viability (nuclei count vs DMSO), 5 days (fraction); higher = more cells survive
[1] = compound: Cc1ccc(C(=O)Nc2ccc(CN3CCN(C)CC3)c(C(F)(F)F)c2)cc1C#Cc1cnc2cccnn12 [Ponatinib] + CS(=O)(=O)N1CCN(Cc2cc3nc(-c4cccc5[nH]ncc45)nc(N4CCOCC4)c3s2)CC1 [Pictilisib] (partner 1 µM)
Method in brief: (§1)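 Cells from lung cancer lines were seeded into 1536-well plates and, one day later, dosed by pin tool. Treatments were either a single drug or a fixed dose of an anchor drug with five library-drug doses (not always all listed) in √10 steps. After 5 days, nuclei were stained in a one-step fixation (final 0.05% Triton X-100, 1% formaldehyde, 1 ug/ml Hoechst) and counted on 4× images, and relative viability is the treated-to-vehicle nuclei ratio, as the median of duplicate plates.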

[2] = compound: Cc1ccc(Nc2nccc(N(C)c3ccc4c(C)n(C)nc4c3)n2)cc1S(N)(=O)=O [Pazopanib] + NC(=O)Nc1cc(-c2cccc(F)c2)sc1C(=O)N[C@H]1CCCNC1 [AZD7762] (partner 0.2 µM)
Method in brief: as §1

[3] = compound: Cc1ccc(Nc2nccc(N(C)c3ccc4c(C)n(C)nc4c3)n2)cc1S(N)(=O)=O [Pazopanib] + COc1cccc2cc(-c3nc([C@H]4CC[C@H](C(=O)O)CC4)n4ncnc(N)c34)[nH]c12 [OSI-027] (partner 0.5 µM)
Method in brief: as §1

[4] = compound: Cc1ccc(C(=O)Nc2ccc(CN3CCN(C)CC3)c(C(F)(F)F)c2)cc1C#Cc1cnc2cccnn12 [Ponatinib] + CCNC(=O)c1noc(-c2cc(C(C)C)c(O)cc2O)c1-c1ccc(CN2CCOCC2)cc1 [Luminespib] (partner 0.01 µM)
Method in brief: as §1

| Cell Line | relative viability ([1]; first compound 0.002 µM) | relative viability ([1]; first compound 0.006325 µM) | relative viability ([1]; first compound 0.06325 µM) | relative viability ([1]; first compound 0.2 µM) | relative viability ([2]; first compound 0.01 µM) | relative viability ([2]; first compound 0.03162 µM) | relative viability ([2]; first compound 0.1 µM) | relative viability ([2]; first compound 0.3162 µM) | relative viability ([2]; first compound 1 µM) | relative viability ([3]; first compound 0.01 µM) | relative viability ([3]; first compound 0.03162 µM) | relative viability ([3]; first compound 0.1 µM) | relative viability ([3]; first compound 0.3162 µM) | relative viability ([3]; first compound 1 µM) | relative viability ([4]; first compound 0.002 µM) | relative viability ([4]; first compound 0.006325 µM) | relative viability ([4]; first compound 0.06325 µM) | relative viability ([4]; first compound 0.2 µM) |
| --- | --- | --- | --- | --- | --- | --- | --- | --- | --- | --- | --- | --- | --- | --- | --- | --- | --- | --- |
| NCI-H838 | 0.564 | 0.505 | 0.455 | 0.455 | 1.04 | 0.911 | 1.04 | 0.909 | 0.946 | 0.435 | 0.488 | 0.373 | 0.42 | 0.555 | 0.324 | 0.324 | 0.298 | 0.3 |
| NCI-H1355 | 0.408 | 0.59 | 0.563 | 0.568 | 0.71 | 0.802 | 0.827 | 0.727 | 0.719 | 0.37 | 0.441 | 0.396 | 0.423 | 0.477 | 0.688 | 0.667 | 0.874 | 0.709 |
| NCI-H1395 |  | 0.696 | 0.657 | 0.581 | 0.36 | 0.366 | 0.389 | 0.38 | 0.387 | 0.606 | 0.741 | 0.605 | 0.616 | 0.706 | 0.644 | 0.601 | 0.829 | 0.637 |
| NCI-H1437 | 0.445 | 0.479 | 0.495 | 0.406 | 1.05 | 1.13 | 1.19 | 1.03 | 1.03 | 0.901 | 0.879 | 0.998 | 0.907 | 1.05 | 1.18 | 1.09 | 1.25 | 1.09 |
| NCI-H1651 | 0.61 | 0.728 | 0.552 | 0.634 | 0.438 | 0.451 | 0.484 | 0.437 | 0.435 | 0.66 | 0.742 | 0.728 | 0.715 | 0.871 | 0.986 | 0.864 | 0.915 | 1.05 |
| NCI-H1666 | 0.534 | 0.436 | 0.48 | 0.702 | 0.871 | 0.828 | 0.788 | 0.823 | 0.848 | 0.86 | 0.953 | 0.882 | 0.866 | 0.948 | 1.02 | 0.998 | 1.09 | 0.986 |
| NCI-H1734 | 0.421 | 0.456 | 0.414 | 0.365 | 0.519 | 0.561 | 0.555 | 0.689 | 0.623 | 0.56 | 0.555 | 0.558 | 0.567 | 0.605 | 0.195 | 0.181 | 0.186 | 0.173 |
| NCI-H1755 | 0.502 | 0.535 | 0.505 | 0.391 | 0.434 | 0.433 | 0.453 | 0.42 | 0.439 | 0.693 | 0.653 | 0.671 | 0.678 | 0.632 | 0.249 | 0.696 | 0.561 | 0.359 |
| NCI-H1792 | 0.241 | 0.347 | 0.388 | 0.284 |  | 0.704 | 0.701 | 0.67 | 0.662 |  | 0.714 | 0.702 | 0.746 | 0.673 | 0.354 | 0.422 | 0.465 | 0.389 |
| NCI-H1793 | 0.335 | 0.344 | 0.206 | 0.356 |  | 0.674 | 0.481 | 0.593 | 0.44 |  | 0.254 | 0.274 | 0.354 | 0.273 | 0.479 | 0.212 | 0.147 | 0.184 |
| NCI-H1915 | 0.892 | 0.98 | 1.03 | 1.03 | 0.716 | 0.658 | 0.667 | 0.68 | 0.616 | 0.61 | 0.659 | 0.626 | 0.588 | 0.64 | 0.754 | 0.769 | 0.805 | 0.672 |
| NCI-H1944 | 0.319 | 0.407 | 0.403 | 0.374 | 0.442 | 0.504 | 0.595 | 0.571 | 0.555 |  | 0.422 | 0.46 | 0.441 | 0.48 | 0.666 | 0.684 | 0.833 | 0.743 |
